Measurements taken from US20250214962A1, “PYRIDINONE DERIVATIVES AS SELECTIVE CYTOTOXIC AGENTS AGAINST HIV INFECTED CELLS” (Merck Sharp & Dohme LLC, priority 2019, published 2025).
Where two headings read alike, the source gives them in different places.

Tests used:
[1] = tested on: infected PBMCs (VSV-G pseudotyped HIV virus); assay: cells; type: cell-based, human; details: read-out: SMACK EC50_50% NHS
Viking EC50, 50% NHS = type: cell-based; details: method not described, read-out: Viking EC50_50% NHS

## Cc1ccc(Cn2cnc(C(F)(F)F)c(Oc3cc(Cl)cc(C#N)c3F)c2=O)c(=O)[nH]1 [Example 4, 5-chloro-2-fluoro-3-((1-((6-methyl-2-oxo-1,2-dihydropyridin-3-yl)methyl)-6-oxo-4-(trifluoromethyl)-1,6-dihydropyrimidin-5-yl)oxy)benzonitrile]
[1]; Homo sapiens, PBMC
  EC50: 197 nM
Viking EC50, 50% NHS
  EC50: 41.1 nM

## CC(O)c1ccc(Cn2cnc(C(F)(F)C(F)F)c(Oc3cc(Cl)cc(C#N)c3F)c2=O)c(=O)[nH]1 (single isomer, unassigned) [Example 34]
[1]; Homo sapiens, PBMC
  EC50: 270 nM
Viking EC50, 50% NHS
  EC50: 43.1 nM

## Cc1ccc(Cn2cnc(C(F)(F)C(F)F)c(Oc3cc(F)cc(C#N)c3C)c2=O)c(=O)[nH]1 [Example 9]
[1]; Homo sapiens, PBMC
  EC50: 281 nM
Viking EC50, 50% NHS
  EC50: 15.7 nM

## Cc1c(C#N)cc(Cl)cc1Oc1c(C(F)(F)F)ncn(Cc2cc(F)c[nH]c2=O)c1=O [Example 19, 5-chloro-3-((1-((5-fluoro-2-oxo-1,2-dihydropyridin-3-yl)methyl)-6-oxo-4-(trifluoromethyl)-1,6-dihydropyrimidin-5-yl)oxy)-2-methylbenzonitrile]
[1]; Homo sapiens, PBMC
  EC50: 376 nM
Viking EC50, 50% NHS
  EC50: 30.7 nM

## Cc1cc(C#N)cc(Oc2c(C(C)(F)F)ncn(Cc3c(C)cc(C)[nH]c3=O)c2=O)c1 [Example 15, 3-((4-(1,1-difluoroethyl)-1-((4,6-dimethyl-2-oxo-1,2-dihydropyridin-3-yl)methyl)-6-oxo-1,6-dihydropyrimidin-5-yl)oxy)-5-methylbenzonitrile]
[1]; Homo sapiens, PBMC
  EC50: 384 nM
Viking EC50, 50% NHS
  EC50: 21.9 nM

## Cc1cc(C)c(Cn2cnc(C(F)(F)C(F)F)c(Oc3cc(Br)cc(C#N)c3)c2=O)c(=O)[nH]1 [Example 7, 3-bromo-5-((1-((4,6-dimethyl-2-oxo-1,2-dihydropyridin-3-yl)methyl)-6-oxo-4-(1,1,2,2-tetrafluoroethyl)-1,6-dihydropyrimidin-5-yl)oxy)benzonitrile]
[1]; Homo sapiens, PBMC
  EC50: 433 nM
Viking EC50, 50% NHS
  EC50: 29.1 nM

## Cc1ccc(Cn2cnc(C(F)(F)C(F)(F)F)c(Oc3cc(Cl)cc(C#N)c3F)c2=O)c(=O)[nH]1 [Example 21, 5-Chloro-2-Fluoro-3-((1-((6-Methyl-2-Oxo-1,2-Dihydropyridin-3-Yl)Methyl)-6-Oxo-4-(Perfluoroethyl)-1,6-Dihydropyrimidin-5-Yl)Oxy)Benzonitrile]
[1]; Homo sapiens, PBMC
  EC50: 152 nM
Viking EC50, 50% NHS
  EC50: 76.8 nM

## N#Cc1cc(Cl)cc(Oc2c(C(F)(F)C(F)F)ncn(Cc3ccc[nH]c3=O)c2=O)c1Cl [Example 8, 2,5-dichloro-3-((6-oxo-1-((2-oxo-1,2-dihydropyridin-3-yl)methyl)-4-(1,1,2,2-tetrafluoroethyl)-1,6-dihydropyrimidin-5-yl)oxy)benzonitrile]
[1]; Homo sapiens, PBMC
  EC50: 495 nM
Viking EC50, 50% NHS
  EC50: 26.9 nM

## N#Cc1cc(Cl)cc(Oc2c(C(F)(F)C(F)F)ncn(Cc3ccc(CO)[nH]c3=O)c2=O)c1F [Example 31, 5-Chloro-2-Fluoro-3-((1-((6-(Hydroxymethyl)-2-Oxo-1,2-Dihydropyridin-3-Yl)Methyl)-6-Oxo-4-(1,1,2,2-Tetrafluoroethyl)-1,6-Dihydropyrimidin-5-Yl)Oxy)Benzonitrile]
[1]; Homo sapiens, PBMC
  EC50: 86.8 nM
Viking EC50, 50% NHS
  EC50: 20.7 nM

## Cc1cc(C)c(Cn2cnc(C(F)(F)F)c(Oc3cc(C(F)F)cc(C#N)c3C)c2=O)c(=O)[nH]1 [Example 42, 5-(Difluoromethyl)-3-((1-((4,6-Dimethyl-2-Oxo-1,2-Dihydropyridin-3-Yl)Methyl)-6-Oxo-4-(Trifluoromethyl)-1,6-Dihydropyrimidin-5-Yl)Oxy)-2-Methylbenzonitrile]
[1]; Homo sapiens, PBMC
  EC50: 222 nM
Viking EC50, 50% NHS
  EC50: 43.1 nM

## N#Cc1cc(Oc2c(C(F)(F)F)ncn(Cc3cc(F)c[nH]c3=O)c2=O)cc(C(F)F)c1 [Example 35]
[1]; Homo sapiens, PBMC
  EC50: 314 nM
Viking EC50, 50% NHS
  EC50: 15.6 nM

## Cc1cc(C)c(Cn2cnc(C(F)(F)C(F)F)c(Oc3cc(Cl)cc(C#N)c3)c2=O)c(=O)[nH]1 [Example 6, 3-chloro-5-((1-((4,6-dimethyl-2-oxo-1,2-dihydropyridin-3-yl)methyl)-6-oxo-4-(1,1,2,2-tetrafluoroethyl)-1,6-dihydropyrimidin-5-yl)oxy)benzonitrile]
[1]; Homo sapiens, PBMC
  EC50: 263 nM
Viking EC50, 50% NHS
  EC50: 37.5 nM

## Cc1c(C#N)cc(C(F)F)cc1Oc1c(C(F)(F)C(F)F)ncn(Cc2ccc[nH]c2=O)c1=O [Example 17, 5-(difluoromethyl)-2-methyl-3-((6-oxo-1-((2-oxo-1,2-dihydropyridin-3-yl)methyl)-4-(1,1,2,2-tetrafluoroethyl)-1,6-dihydropyrimidin-5-yl)oxy)benzonitrile]
[1]; Homo sapiens, PBMC
  EC50: 218 nM
Viking EC50, 50% NHS
  EC50: 17.1 nM

## COCc1ccc(Cn2cnc(C(F)(F)C(F)F)c(Oc3cc(Cl)cc(C#N)c3F)c2=O)c(=O)[nH]1 [Example 1, 5-Chloro-2-Fluoro-3-((1-((6-(Methoxymethyl)-2-Oxo-1,2-Dihydropyridin-3-Yl)Methyl)-6-Oxo-4-(1,1,2,2-Tetrafluoroethyl)-1,6-Dihydropyrimidin-5-Yl)Oxy)Benzonitrile]
[1]; Homo sapiens, PBMC
  EC50: 258 nM
Viking EC50, 50% NHS
  EC50: 29.6 nM

## Cc1c(C#N)cc(C(F)F)cc1Oc1c(C(F)(F)C(F)F)ncn(Cc2ccc(C(C)(C)O)[nH]c2=O)c1=O [Example 29, 5-(Difluoromethyl)-3-((1-((6-(2-Hydroxypropan-2-Yl)-2-Oxo-1,2-Dihydropyridin-3-Yl)Methyl)-6-Oxo-4-(1,1,2,2-Tetrafluoroethyl)-1,6-Dihydropyrimidin-5-Yl)Oxy)-2-Methylbenzonitrile]
[1]; Homo sapiens, PBMC
  EC50: 187 nM
Viking EC50, 50% NHS
  EC50: 29.8 nM

## Cc1cc(C)c(Cn2cnc(C(C)(F)F)c(Oc3cc(Cl)cc(C#N)c3F)c2=O)c(=O)[nH]1 [Example 2, 5-chloro-3-((4-(1,1-difluoroethyl)-1-((4,6-dimethyl-2-oxo-1,2-dihydropyridin-3-yl)methyl)-6-oxo-1,6-dihydropyrimidin-5-yl)oxy)-2-fluorobenzonitrile]
[1]; Homo sapiens, PBMC
  EC50: 294 nM
Viking EC50, 50% NHS
  EC50: 37.4 nM

## N#Cc1cc(Cl)cc(Oc2c(C(F)(F)F)ncn(Cc3cc(F)c[nH]c3=O)c2=O)c1Cl [Example 36, 2,5-dichloro-3-((1-((5-fluoro-2-oxo-1,2-dihydropyridin-3-yl)methyl)-6-oxo-4-(trifluoromethyl)-1,6-dihydropyrimidin-5-yl)oxy)benzonitrile]
[1]; Homo sapiens, PBMC
  EC50: 369 nM
Viking EC50, 50% NHS
  EC50: 50 nM

## Cc1c(C#N)cc(C(F)F)cc1Oc1c(C(F)(F)F)ncn(Cc2ccc[nH]c2=O)c1=O [Example 16, 5-(difluoromethyl)-2-methyl-3-((6-oxo-1-((2-oxo-1,2-dihydropyridin-3-yl)methyl)-4-(trifluoromethyl)-1,6-dihydropyrimidin-5-yl)oxy)benzonitrile]
[1]; Homo sapiens, PBMC
  EC50: 268 nM
Viking EC50, 50% NHS
  EC50: 7.08 nM

## Cc1ccc(Cn2cnc(C(F)(F)C(F)F)c(Oc3cc(C(F)F)cc(C#N)c3C)c2=O)c(=O)[nH]1 [Example 22, 5-(difluoromethyl)-2-methyl-3-((1-((6-methyl-2-oxo-1,2-dihydropyridin-3-yl)methyl)-6-oxo-4-(1,1,2,2-tetrafluoroethyl)-1,6-dihydropyrimidin-5-yl)oxy)benzonitrile]
[1]; Homo sapiens, PBMC
  EC50: 131 nM
Viking EC50, 50% NHS
  EC50: 48.9 nM

## N#Cc1cc(Cl)cc(Oc2c(C(F)(F)F)ncn(Cc3cc(F)c[nH]c3=O)c2=O)c1F [Example 37, 5-chloro-2-fluoro-3-((1-((5-fluoro-2-oxo-1,2-dihydropyridin-3-yl)methyl)-6-oxo-4-(trifluoromethyl)-1,6-dihydropyrimidin-5-yl)oxy)benzonitrile]
[1]; Homo sapiens, PBMC
  EC50: 413 nM
Viking EC50, 50% NHS
  EC50: 32.4 nM

## CC(F)c1ncn(Cc2ccc(CO)[nH]c2=O)c(=O)c1Oc1cc(Cl)cc(C#N)c1F (single isomer, unassigned) [Example 33, 5-Chloro-2-Fluoro-3-((4-(1-Fluoroethyl)-1-((6-(Hydroxymethyl)-2-Oxo-1,2-Dihydropyridin-3-Yl)Methyl)-6-Oxo-1,6-Dihydropyrimidin-5-Yl)Oxy)Benzonitrile]
[1]
  EC50: 389 nM
Viking EC50, 50% NHS
  EC50: 23.1 nM

## Cc1c(C#N)cc(C(F)F)cc1Oc1c(C(F)(F)C(F)(F)F)ncn(Cc2cc(F)c[nH]c2=O)c1=O [Example 38, 5-(difluoromethyl)-3-((1-((5-fluoro-2-oxo-1,2-dihydropyridin-3-yl)methyl)-6-oxo-4-(perfluoroethyl)-1,6-dihydropyrimidin-5-yl)oxy)-2-methylbenzonitrile]
[1]; Homo sapiens, PBMC
  EC50: 191 nM
Viking EC50, 50% NHS
  EC50: 96.8 nM

## Cc1ccc(Cn2cnc(C(F)(F)C(F)F)c(Oc3cc(Cl)cc(C#N)c3F)c2=O)c(=O)[nH]1 [Example 39, 5-Chloro-2-Fluoro-3-((1-((6-Methyl-2-Oxo-1,2-Dihydropyridin-3-Yl)Methyl)-6-Oxo-4-(1,1,2,2-Tetrafluoroethyl)-1,6-Dihydropyrimidin-5-Yl)Oxy)Benzonitrile]
[1]; Homo sapiens, PBMC
  EC50: 162 nM
Viking EC50, 50% NHS
  EC50: 33.5 nM

## Cc1cc(C)c(Cn2cnc(C(F)(F)CF)c(Oc3cc(C(F)F)cc(C#N)c3C)c2=O)c(=O)[nH]1 [Example 41, 5-(difluoromethyl)-3-((1-((4,6-dimethyl-2-oxo-1,2-dihydropyridin-3-yl)methyl)-6-oxo-4-(1,1,2-trifluoroethyl)-1,6-dihydropyrimidin-5-yl)oxy)-2-methylbenzonitrile]
[1]; Homo sapiens, PBMC
  EC50: 283 nM
Viking EC50, 50% NHS
  EC50: 59.8 nM

## COCc1ccc(Cn2cnc(C(F)(F)C(F)F)c(Oc3cc(C(F)F)cc(C#N)c3C)c2=O)c(=O)[nH]1 [Example 26, 5-(difluoromethyl)-3-((1-((6-(methoxymethyl)-2-oxo-1,2-dihydropyridin-3-yl)methyl)-6-oxo-4-(1,1,2,2-tetrafluoroethyl)-1,6-dihydropyrimidin-5-yl)oxy)-2-methylbenzonitrile]
[1]; Homo sapiens, PBMC
  EC50: 90.1 nM
Viking EC50, 50% NHS
  EC50: 29.3 nM

## Cc1cc(C#N)c(C)c(Oc2c(C(F)(F)C(F)F)ncn(Cc3c(C)cc(C)[nH]c3=O)c2=O)c1 [Example 24, 3-((1-((4,6-Dimethyl-2-Oxo-1,2-Dihydropyridin-3-Yl)Methyl)-6-Oxo-4-(1,1,2,2-Tetrafluoroethyl)-1,6-Dihydropyrimidin-5-Yl)Oxy)-2,5-Dimethylbenzonitrile]
[1]; Homo sapiens, PBMC
  EC50: 346 nM
Viking EC50, 50% NHS
  EC50: 168 nM

## N#Cc1cc(Cl)cc(Oc2c(C(F)(F)F)ncn(Cc3ccc(-c4cn[nH]c4)[nH]c3=O)c2=O)c1 [Example 30, 3-Chloro-5-((6-Oxo-1-((2-Oxo-6-(1H-Pyrazol-4-Yl)-1,2-Dihydropyridin-3-Yl)Methyl)-4-(Trifluoromethyl)-1,6-Dihydropyrimidin-5-Yl)Oxy)Benzonitrile]
[1]; Homo sapiens, PBMC
  EC50: 415 nM
Viking EC50, 50% NHS
  EC50: 30.1 nM
